Test results: US6492416B1, “4,5-diaryl-3(2H)-furanone derivatives as cyclooxygenase-2 inhibitors” (Pacific Corporation, priority 1999, dated 2002)
Values after ≈ are worked out from the molar mass of the structure shown.

Legend:
COX-1 = target: T1, COX-1 (Mus musculus, UniProt P22437); assay: Evaluation of COX-1 activity: PGE2 formation in mouse peritoneal macrophages without aspirin and LPS treatment; format: cell-based
T1 sequence (P22437 27-602): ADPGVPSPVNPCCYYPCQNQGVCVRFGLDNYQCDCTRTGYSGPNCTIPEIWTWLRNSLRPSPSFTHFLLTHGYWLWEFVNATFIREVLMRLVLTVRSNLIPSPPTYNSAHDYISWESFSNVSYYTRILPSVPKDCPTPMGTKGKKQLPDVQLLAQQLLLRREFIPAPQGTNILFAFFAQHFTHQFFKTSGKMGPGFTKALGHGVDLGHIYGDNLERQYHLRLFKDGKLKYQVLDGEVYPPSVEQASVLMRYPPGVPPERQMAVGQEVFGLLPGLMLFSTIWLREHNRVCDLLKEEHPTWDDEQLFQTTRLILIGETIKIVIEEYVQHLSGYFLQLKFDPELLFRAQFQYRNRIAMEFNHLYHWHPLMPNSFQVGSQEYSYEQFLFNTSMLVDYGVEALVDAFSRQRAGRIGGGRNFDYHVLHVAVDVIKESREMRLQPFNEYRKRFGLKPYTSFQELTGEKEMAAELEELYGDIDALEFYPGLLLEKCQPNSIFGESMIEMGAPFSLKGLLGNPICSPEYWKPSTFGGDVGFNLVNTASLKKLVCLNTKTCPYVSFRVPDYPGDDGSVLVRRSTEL
Outline: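 Peritoneal macrophages from C57BL/6 mice, without aspirin or LPS treatment, were plated at 1×10^6 cells/ml and fixed 2 h at 37 °C. Cells were preincubated 10 min, then given 10 μM arachidonic acid plus compound for 10 min; PGE2 was measured by RIA or EIA. IC50 came from 4–5 concentrations.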

male SD rats = assay: Antiinflammatory potency by adjuvant arthritis (AA); format: in vivo; details: daily oral dose day 14 to day 22, rat
Protocol: Arthritis was induced in male SD rats weighing 180-200 g by subcutaneous injection of Mycobacterium butyricum mixed in 0.1 ml of incomplete Freund's adjuvanat into the base of the tail. The foot volumes were measured using a displacement plethysomometer 14 days after the injection of the adjuvant. Animals with paw volumes greater than the normal paw volumes (without the adjuvant treatment) by 0.37 ml were selected, and then randomized. A designated daily dose of a compound of this invention, which was suspended in 1% aqueous methylcellulose solution, was administered to the randomized rats with arthritis by oral gavage daily once beginning on day 14 after the injection of the adjuvant. The administration of the compound continued till day 22 after the injection of the adjuvant, and the paw volumes were measured on daily basis using a displacement plethysmometer.
% Inhibition of AA=(1−Δtreated/Δcontrol)×100
wherein Δtreated=[(paw volume at day 22)/(paw volume at day 14)−1] for a drug-administered rat, and Δcontrol=[(paw volume at day 22)/(paw volume at day 14)−1] for a rat without drug administration.
ED50 value was determined b a dose-response curve for each compound.

[1] = test system: male Sprague-Dawley (SD) rats; assay: Carrageenan-induced foot edema in rats (CFE); format: in vivo; details: oral dose 3 mg/kg body weight, rat, paw volume 3 hours after Carrageenan
Protocol: An appropriate amount of a compound of this invention suspended in 1% methylcellulose (MC) solution was administered to male Sprague-Dawley (SD) rats weighing 150˜200 g by oral gavage. The volume of the administered vehicle for a compound of this invention was controlled to be smaller than 10 ml/kg body weight of the animal. One hour later, 0.1 ml of 1% Carrageenan saline solution was directly injected into the right paw of the rats to induce edema in the paw. The paw volumes at 0 hour and at 3 hours after the injection of Carrageenan were measured by using a displacement plethysmometer (Ugo Basile, Italy). The paw volumes were used to calculate % inhibition of CFE by an amount of a compound of this invention according to the following equation.
% Inhibition of CFE=(1−Δtreated/Δcontrol)×100
wherein Δtreated=[paw volume at three hours after the Carrageenan injection−paw volume right after Carrageenan injection] for a drug-administered rat, and Δcontrol=[paw volume at three hours after the Carrageenan injection−paw volume right after Carrageenan injection] for a rat without drug administration.
In order to determine the inhibitory activity of a compound of this invention at a dose, usually 5 to 8 animals were used both for drug-treated group and for control group.

Row | melting point | IC50, μg/ml COX-1 (COX-1) | Structure (SMILES) | Adjuvant Arthritis ED50 (male SD rats) | % Inhibition (CFE) [1]
1 | 178 to 179 °C | 5 µg/mL (≈ 13.9 µM) | CC1(C)OC(c2ccc(S(C)(=O)=O)cc2)=C(c2cccc(F)c2)C1=O [Example 4, 2,2-Dimethyl-4-(3-fluorophenyl)-5-{4-(methylsulfonyl)phenyl}-3(2H)-furanone] | 0.07 mg/kg body weight | 36%
2 |  | 1.02 µg/mL (≈ 2.82 µM) | CC1(C)OC(c2ccc(S(N)(=O)=O)cc2)=C(c2cccc(F)c2)C1=O [Example 129, 5-{4-(aminosulfonyl)phenyl}-2,2-dimethyl-4-(3-fluorophenyl)-3(2H)-furanone] | 0.02 mg/kg body weight | 47%

The next lines start with the compound.

Row | Structure (SMILES) | melting point | IC50, μg/ml COX-1 (COX-1) | Adjuvant Arthritis ED50 (male SD rats) | % Inhibition (CFE) [1]
3 | CC1(C)OC(c2ccc(S(C)(=O)=O)cc2)=C(c2cc(F)cc(F)c2)C1=O [Example 11, 4-(3,5-Difluorophenyl)-2,2-dimethyl-5-{4-(methylsulfonyl)phenyl}-3(2H)-furanone] | 141 to 142 °C | 20 µg/mL (≈ 52.9 µM) | 0.03 mg/kg body weight | 
4 | CC1(C)OC(c2ccc(S(N)(=O)=O)cc2)=C(c2cccc(Cl)c2)C1=O [Example 126] | 194 to 195 °C | 3.82 µg/mL (≈ 10.1 µM) | 0.03 mg/kg body weight | 39%
5 | CC1(C)OC(c2ccc(S(N)(=O)=O)cc2F)=C(c2ccc(F)cc2)C1=O [Example 334] | 95 to 97 °C | 3 µg/mL (≈ 7.91 µM) | 0.09 mg/kg body weight | 37%
